Measurements as given in patent US10668079B2, “Composition composed of ceftriaxone sodium and sulbactum sodium” (XIANGBEI WELMAN PHARMACEUTICAL CO., LTD., priority 2016, dated 2020).
Counter-ions that a name gives are not always drawn.

Experiments:
Assay in all cases: In vivo antibacterial test (animal protection test, septicemia mouse model)
[1] = system: Q-R (quinolone-resistant Neisseria gonorrhoeae); details: sc, strain Q-R, ICR mice
Experimental: (§1) The stability test samples in test example 1 were sampled at 0th month and subjected to in vivo antibacterial test; and the stability test samples were sampled at 30th month again, and subjected to in vivo antibacterial test. The in vivo antibacterial tests were performed according to the following method.
(§2) Test Samples: Compositions I to VIII, Sterile Powder for Injection I, Sterile Powder for Injection II, Sterile Powder for Injection IV, Lyophilized Powder for Injection I, Lyophilized Powder for Injection II, Lyophilized Powder for Injection A, Sterile Powder for Injection A and Sterile Powder for Injection B, all of which were obtained from the test example 1 at 0th and 30th month; and control drugs: ceftriaxone sodium, levofloxacin hydrochloride, azithromycin, doxycycline hydrochloride and spectinomycin hydrochloride, wherein, a batch of the control drugs were purchased at 0th month of the stability test so as to match with the test samples at 0th month, and another batch of control drugs were purchased at 30th month of the stability test so as to match with the test samples at 30th month, and the time when the two batches were purchased was within one month from the date of their production.
(§3) Animals: ICR mice weighed 18-22 g, half male and half female.
(§4) Strains: ATCC700603 (Klebsiella pneumoniae), ATCC43069 (Neisseria gonorrhoeae), Q-R (quinolone-resistant Neisseria gonorrhoeae), T-R (tetracycline-resistant Neisseria gonorrhoeae), PP-R (β-lactam-resistant Neisseria gonorrhoeae), MAC-R (macrolide-resistant Neisseria gonorrhoeae), SPE-R (spectinomycin-resistant Neisseria gonorrhoeae) and QS-R (ceftriaxone-resistant Neisseria gonorrhoeae), wherein, ATCC700603, and ATCC43069 were purchased from ATCC; QS-R was prepared by in vitro inducing Neisseria gonorrhoeae, which was sensitive to ceftriaxone, with a subinhibitory concentration of ceftriaxone, culturing at 36° C., 5% CO2, passaging once every 24 hours, and then transferring to a higher concentration of ceftriaxone on GC medium until the strain was resistant to ceftriaxone; and other strains were clinical isolates.
(§5) Aseptic thoracotomy was performed timely on the mice died of infection, the heart blood or intracavity effusion was taken and evenly coated on corresponding agar plates, and incubated for 18 hours at 37° C. […] The obtained strain was used to infect mice again.
(§6) After infection, the number of dead mice was recorded. The minimum dose causing 100% death of mice was 1 MLD, and was used as the dose in animal protection experiments. The bacterial concentration, which was one log lower than 1 MLD and infected the animals without mortality, was named 0.1 MLD. In experiments, a bacteria concentration of 1 MLD was used as the positive control for the infection experiments; and a bacteria concentration of 0.1 MLD was used as the negative control for the infection. In both positive and negative control groups, only the bacteria were administrated and no antibiotic treatment was provided. The mortality of the positive group should be 70% or more, and the mortality of the negative group should be 30% or less.
(§7) When the administration dosage was investigated first, there may be relatively great differences between the dose concentrations of the groups. When the range of the administration dosage was determined, it may be further investigated by reducing the differences until the suitable administration dosage (that is, for the group administrated with the highest concentration, 70% or more infected animals survived; and for the group administrated with the lowest concentration, no less than 70% of infected animals died) was found.

[2] = system: ATCC43069 (Neisseria gonorrhoeae); details: ATCC43069, sc, ICR mice
Experimental: as §1, §2, §3, §4, §5, §6, §7

[3] = system: SPE-R (spectinomycin-resistant Neisseria gonorrhoeae); details: sc, strain SPE-R, ICR mice
Experimental: as §1, §2, §3, §4, §5, §6, §7

[4] = system: ATCC700603 (Klebsiella pneumoniae); details: ATCC700603, sc, ICR mice
Experimental: as §1, §2, §3, §4, §5, §6, §7

[5] = system: PP-R (β-lactam-resistant Neisseria gonorrhoeae); details: sc, strain PP-R, ICR mice
Experimental: as §1, §2, §3, §4, §5, §6, §7

[6] = system: T-R (tetracycline-resistant Neisseria gonorrhoeae); details: sc, strain T-R, ICR mice
Experimental: as §1, §2, §3, §4, §5, §6, §7

[7] = system: QS-R (ceftriaxone-resistant Neisseria gonorrhoeae); details: sc, strain QS-R, ICR mice
Experimental: as §1, §2, §3, §4, §5, §6, §7

[8] = system: MAC-R (macrolide-resistant Neisseria gonorrhoeae); details: sc, strain MAC-R, ICR mice
Experimental: as §1, §2, §3, §4, §5, §6, §7

[9] = samples at 0th month of the stability test, subcutaneous immediately and after 6 hours, 7 days observation
[10] = samples at 30th month of the stability test (control drugs: batch purchased at 30th month), subcutaneous
[11] = strain ATCC 43069, samples at 0th month of the stability test, subcutaneous immediately and after 6 hours, 7 days observation
[12] = strain ATCC 43069, samples at 30th month of the stability test (control drugs: batch purchased at 30th month), subcutaneous

| SMILES | ED50 [1, 9] [mg/kg] | ED50 [1, 10] [mg/kg] | ED50 [2, 11] [mg/kg] | ED50 [2, 12] [mg/kg] | ED50 [3, 9] [mg/kg] | ED50 [3, 10] [mg/kg] | ED50 ([4]; strain ATCC 700603, samples at 0th month of the stability test, subcutaneous immediately and after 6 hours, 7 days observation) [mg/kg] | ED50 ([4]; strain ATCC 700603, samples at 30th month of the stability test (control drugs: batch purchased at 30th month), subcutaneous) [mg/kg] | ED50 [5, 9] [mg/kg] | ED50 [5, 10] [mg/kg] | ED50 [6, 9] [mg/kg] | ED50 [6, 10] [mg/kg] | ED50 [7, 9] [mg/kg] | ED50 [7, 10] [mg/kg] | ED50 [8, 9] [mg/kg] | ED50 [8, 10] [mg/kg] |
| --- | --- | --- | --- | --- | --- | --- | --- | --- | --- | --- | --- | --- | --- | --- | --- | --- |
| CO/N=C(\C(=O)N[C@@H]1C(=O)N2C(C(=O)O)=C(CSc3nc(=O)c(=O)[nH]n3C)CS[C@H]12)c1csc(N)n1 [Ceftriaxone Sodium, ceftriaxone sodium] | 31 | 30 | 16 | 21 | 52 | 66 | 35 | 37 | 208 | 224 | 46 | 57 | 337 | 373 | 34 | 37 |
| C[C@H]1c2cccc(O)c2C(=O)C2=C(O)[C@]3(O)C(=O)C(C(N)=O)=C(O)[C@@H](N(C)C)[C@@H]3[C@@H](O)[C@@H]21 [Doxycycline Hydrochloride, doxycycline hydrochloride] | 55 | 51 | 37 | 32 | 52 | 51 |  |  | 52 | 47 | 456 | 432 | 105 | 99 | 58 | 62 |
| CN[C@@H]1[C@H](O)[C@H](NC)[C@H]2O[C@@]3(O)C(=O)C[C@@H](C)O[C@H]3O[C@@H]2[C@H]1O [Spectinomycin Hydrochloride, spectinomycin hydrochloride] | 40 | 42 | 19 | 22 | 621 | 571 |  |  | 56 | 67 | 61 | 68 | 41 | 56 | 38 | 42 |
| C[C@H]1COc2c(N3CCN(C)CC3)c(F)cc3c(=O)c(C(=O)O)cn1c23 [Levofloxacin Hydrochloride, levofloxacin hydrochloride] | 573 | 564 | 25 | 30 | 67 | 72 |  |  | 37 | 42 | 48 | 43 | 72 | 82 | 36 | 41 |
| CC[C@H]1OC(=O)[C@H](C)[C@@H](O[C@H]2C[C@@](C)(OC)[C@@H](O)[C@H](C)O2)[C@H](C)[C@@H](O[C@@H]2O[C@H](C)C[C@H](N(C)C)[C@H]2O)[C@](C)(O)C[C@@H](C)CN(C)[C@H](C)[C@@H](O)[C@]1(C)O [Azithromycin, azithromycin] | 43 | 40 | 24 | 31 | 59 | 65 |  |  | 49 | 55 | 62 | 59 | 63 | 69 | 487 | 497 |
